Reference: article PMC3447774, “Genes Encoding Cher-TPR Fusion Proteins Are Predominantly Found in Gene Clusters Encoding Chemosensory Pathways with Alternative Cellular Functions” (PLoS ONE, 2012)

Tests used:
Assay in all cases: isothermal titration calorimetry
Assay type in all cases: binding
WspC-Pp = target: T1, WspC-Pp (Pseudomonas putida, UniProt Q88MS8)
T1 construct: full-length CheR-linker-TPR protein; monomer
Excerpt: isothermal titration calorimetry on WspC-Pp

WspC-Ppshort = target: T2, WspC-Ppshort (Pseudomonas putida, UniProt Q88MS8)
T2 construct: amino acids 1-240, CheR domain only, lacks linker and TPR domain
Excerpt: isothermal titration calorimetry on WspC-Ppshort

WspC-Ppmiddle = target: T3, WspC-Ppmiddle (Pseudomonas putida, UniProt Q88MS8)
T3 construct: amino acids 1-355, CheR domain plus linker, lacks TPR domain
Excerpt: isothermal titration calorimetry on WspC-Ppmiddle

T3 sequence (Q88MS8 1-355): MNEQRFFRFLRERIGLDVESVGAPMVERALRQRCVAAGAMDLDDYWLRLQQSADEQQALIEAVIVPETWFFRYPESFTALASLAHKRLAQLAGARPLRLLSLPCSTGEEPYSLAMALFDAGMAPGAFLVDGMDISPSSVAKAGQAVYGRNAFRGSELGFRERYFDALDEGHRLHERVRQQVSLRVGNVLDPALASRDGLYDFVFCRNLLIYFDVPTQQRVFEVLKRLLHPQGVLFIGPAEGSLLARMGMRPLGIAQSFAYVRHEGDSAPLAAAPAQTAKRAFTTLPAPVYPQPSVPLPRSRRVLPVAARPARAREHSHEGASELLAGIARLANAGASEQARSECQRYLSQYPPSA
T1 sequence (Q88MS8 whole entry): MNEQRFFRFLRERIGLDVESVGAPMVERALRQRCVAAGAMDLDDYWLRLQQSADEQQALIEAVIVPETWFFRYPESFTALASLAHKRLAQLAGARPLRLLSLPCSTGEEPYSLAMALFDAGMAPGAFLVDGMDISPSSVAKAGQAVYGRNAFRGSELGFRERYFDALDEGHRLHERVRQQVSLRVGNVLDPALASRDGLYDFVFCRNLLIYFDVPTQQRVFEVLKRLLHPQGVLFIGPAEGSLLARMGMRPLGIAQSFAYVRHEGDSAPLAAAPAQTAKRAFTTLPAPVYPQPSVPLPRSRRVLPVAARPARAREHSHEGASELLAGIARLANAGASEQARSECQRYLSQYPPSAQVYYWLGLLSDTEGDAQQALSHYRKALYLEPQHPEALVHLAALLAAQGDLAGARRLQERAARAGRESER
T2 sequence (Q88MS8 1-283): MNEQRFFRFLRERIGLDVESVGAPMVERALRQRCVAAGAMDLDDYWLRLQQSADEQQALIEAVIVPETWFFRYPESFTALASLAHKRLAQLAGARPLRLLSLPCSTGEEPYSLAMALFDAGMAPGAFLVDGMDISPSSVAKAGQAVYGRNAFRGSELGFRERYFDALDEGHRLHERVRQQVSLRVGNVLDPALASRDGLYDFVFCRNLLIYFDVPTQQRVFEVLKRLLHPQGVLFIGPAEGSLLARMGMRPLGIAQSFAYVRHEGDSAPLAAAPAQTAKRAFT

With `C[S+](CC[C@H](N)C(=O)O)C[C@H]1O[C@@H](n2cnc3c(N)ncnc32)[C@H](O)[C@@H]1O` (stereo partly drawn) [S-adenosylmethionine] the Kd (WspC-Pp) was 43 ± 2 µM, the Kd (WspC-Ppshort) was 41 ± 4 µM and the Kd (WspC-Ppmiddle) was 35 ± 2 µM.

`Nc1ncnc2c1ncn2[C@@H]1O[C@H](CSCC[C@H](N)C(=O)O)[C@@H](O)[C@H]1O` [S-adenosylhomocysteine] was tested, and the Kd (WspC-Pp) was 1.7 ± 0.1 µM, the Kd (WspC-Ppshort) was 2 ± 0.1 µM and the Kd (WspC-Ppmiddle) was 1.6 ± 0.1 µM.
